Assay results published in US8822449B2, “Substituted aminoindanes and analogs thereof, and the pharmaceutical use thereof” (Sanofi, priority 2008, dated 2014).

molecular target: T1, sodium-proton exchanger of subtype 3 (NHE3) (Homo sapiens, UniProt P48764); assay: Recovery of intracellular pH (pHi) after acidification in LAP1 cells stably expressing NHE3 (BCECF fluorescence, FLIPR); type: cell-based; details: LAP1 cells stably expressing NHE3; pH recovery after acidification; range 1 is % inhibition at 10 μM; read-out: Activity range (inhibitory effect on NHE3)
T1 construct: expressed in transfected cells
T1 sequence (P48764 26-834): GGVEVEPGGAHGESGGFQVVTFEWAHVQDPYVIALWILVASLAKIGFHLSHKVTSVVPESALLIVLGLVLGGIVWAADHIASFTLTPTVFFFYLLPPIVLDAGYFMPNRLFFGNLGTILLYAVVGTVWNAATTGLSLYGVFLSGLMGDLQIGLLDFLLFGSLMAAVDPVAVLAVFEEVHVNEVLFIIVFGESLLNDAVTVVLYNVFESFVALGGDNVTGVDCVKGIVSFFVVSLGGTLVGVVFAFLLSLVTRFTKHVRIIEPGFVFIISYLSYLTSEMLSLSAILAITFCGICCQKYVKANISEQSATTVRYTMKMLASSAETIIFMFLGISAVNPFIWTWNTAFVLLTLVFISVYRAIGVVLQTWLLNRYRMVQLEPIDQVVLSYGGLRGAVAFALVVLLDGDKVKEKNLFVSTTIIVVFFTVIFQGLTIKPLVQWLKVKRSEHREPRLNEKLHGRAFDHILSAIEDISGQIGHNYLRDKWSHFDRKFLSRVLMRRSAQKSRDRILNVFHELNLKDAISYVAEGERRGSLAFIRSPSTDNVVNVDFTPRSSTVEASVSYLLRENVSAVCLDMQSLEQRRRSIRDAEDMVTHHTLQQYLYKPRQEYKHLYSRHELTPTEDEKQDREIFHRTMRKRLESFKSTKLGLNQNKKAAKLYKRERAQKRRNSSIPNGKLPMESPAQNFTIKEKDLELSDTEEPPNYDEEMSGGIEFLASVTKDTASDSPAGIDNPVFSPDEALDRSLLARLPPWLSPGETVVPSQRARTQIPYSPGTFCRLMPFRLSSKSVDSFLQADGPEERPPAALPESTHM

`NC(=O)c1cccc(O[C@@H]2c3ccccc3C[C@H]2N2CCC[C@@H](N)C2)c1` (racemic) [Example 411, 3-[rac-trans-(1,2)-2-((R)-3-aminopiperidin-1-yl)indan-1-yloxy]benzamide] and `CC(=O)Nc1cccc(O[C@H]2c3ccccc3C[C@@H]2N2CCC[C@@H](NCCF)C2)c1` [Example 631, N-(3-{trans-(1S,2S)-2-[(R)-3-(2-fluoroethylamino)piperidin-1-yl]indan-1-yloxy}phenyl)-acetamide] cannot be ordered by IC50: < 1 µM for the first, < 1 µM for the second.

`CS(=O)(=O)c1ccc(O[C@H]2c3cc(Cl)cc(Cl)c3C[C@@H]2N2CCCNCC2)cc1` (racemic) [Example 277, 1-[rac-trans-(1,2)-4,6-dichloro-1-(4-methanesulfonylphenoxy)indan-2-yl]-[1,4]diazepane] and `CS(=O)(=O)c1ccc(O[C@H]2c3cc(Cl)cc(Cl)c3C[C@@H]2N2CCCC(NCCO)C2)cc1` (stereo partly drawn) [Example 379, 2-{(R)-1-[trans-(1S,2S)-4,6-dichloro-1-(4-methanesulfonylphenoxy)indan-2-yl]piperidin-3-ylamino}-ethanol] cannot be ordered by IC50: < 1 µM for the first, < 1 µM for the second.

`Cc1nnc(C)n1-c1ccc(O[C@H]2c3cc(Cl)cc(F)c3C[C@@H]2N2CC[C@@H](O)C2)c(F)c1` [Example 142, (R)-1-{trans-(1S,2S)-6-chloro-1-[4-(3,5-dimethyl-[1,2,4]triazol-4-yl)-2-fluorophenoxy]-4-fluoroindan-2-yl}pyrrolidin-3-ol] and `Cc1nnc(C)n1-c1ccc(O[C@H]2c3cc(Cl)cc(Cl)c3C[C@@H]2N2CC[C@@H](C#N)C2)cc1` [Example 134, (R)-1-{trans-(1S,2S)-4,6-dichloro-1-[4-(3,5-dimethyl-[1,2,4]triazol-4-yl)phenoxy]indan-2-yl}pyrrolidine-3-carbonitrile] cannot be ordered by IC50: < 1 µM for the first, < 1 µM for the second.

`Fc1ccc(O[C@H]2c3cc(Cl)cc(Cl)c3C[C@@H]2N2CCNCC2)c(-c2cc[nH]n2)c1` [Example 309, 1-{(1S,2S)-4,6-dichloro-1-[4-fluoro-2-(1H-pyrazol-3-yl)phenoxy]indan-2-yl}piperazine] and `N[C@@H]1CCCN([C@H]2CCc3ccccc3[C@@H]2Oc2ccc(F)cc2-c2cc[nH]n2)C1` (racemic) [Example 120, (R)-1-{rac-trans-(1,2)-1-[4-fluoro-2-(1H-pyrazol-3-yl)phenoxy]-1,2,3,4-tetrahydronaphthalen-2-yl}piperidin-3-ylamine] cannot be ordered by IC50: < 1 µM for the first, < 1 µM for the second.

First: CCc1ccc(O[C@@H]2c3ccccc3C[C@H]2N2C[C@H]3CNC[C@H]3C2)c(C(C)(C)C)c1 (racemic) [Example 12, 2-[rac-trans-(1,2)-1-(2-tert-butyl-4-ethylphenoxy)indan-2-yl]octahydropyrrolo[3,4-c]pyrrole]
Second: Clc1ccc(O[C@@H]2c3ccccc3C[C@H]2N2C[C@H]3CNC[C@H]3C2)cn1 (racemic) [Example 18, 2-[rac-trans-(1,2)-1-(6-chloropyridin-3-yloxy)indan-2-yl]octahydropyrrolo[3,4-c]pyrrole]
The IC50 of the first is lower: < 1 µM for the first, 1 to 10 µM for the second.

`CCN(CC)[C@@H]1Cc2ccccc2[C@H]1Oc1ccc(S(N)(=O)=O)c(Cl)c1Cl` (racemic) [Example 355, 2,3-dichloro-4-(rac-trans-(1,2)-2-diethylaminoindan-1-yloxy)benzenesulfonamide] and `NCC1CCN([C@@H]2Cc3ccccc3[C@H]2Oc2ccc(S(N)(=O)=O)c(Cl)c2Cl)C1` (mixture of isomers) [Example 538, 4-[rac-trans-(1,2)-2-(3-aminomethylpyrrolidin-1-yl)indan-1-yloxy]-2,3-dichlorobenzenesulfonamide] fall in the same range of IC50: 1 to 10 µM for the first, 1 to 10 µM for the second.

First: N[C@H]1CCCN([C@@H]2Cc3ccccc3[C@H]2Oc2ccc(-n3cncn3)cc2)C1 (racemic) [Example 172, (S)-1-[rac-trans-(1,2)-1-(4-[1,2,4]triazol-1-ylphenoxy)indan-2-yl]piperidin-3-ylamine]
Second: N[C@@H]1CCCN([C@@H]2Cc3ccccc3[C@H]2Oc2ccc(-n3cncn3)cc2)C1 (racemic) [Example 62, (R)-1-[rac-trans-(1,2)-1-(4-[1,2,4]triazol-1-ylphenoxy)indan-2-yl]piperidin-3-ylamine]
The IC50 of the first is higher: 1 to 10 µM for the first, < 1 µM for the second. The second is the more potent here.

Compared with `CC(=O)Nc1cccc(O[C@H]2c3cc(Cl)ccc3C[C@@H]2N2CCNCC2)c1` (racemic) [Example 657, N-[3-(rac-trans-(1,2)-6-chloro-2-piperazin-1-ylindan-1-yloxy)phenyl]acetamide], `CC(=O)Nc1cccc(O[C@H]2c3cc(F)ccc3C[C@@H]2N2CCCC2)c1` (racemic) [Example 661, N-[3-(rac-trans-(1,2)-6-fluoro-2-pyrrolidin-1-ylindan-1-yloxy)phenyl]acetamide] is lower in IC50: 1 to 10 µM for the first, < 1 µM for the second.

`CCN(CC)[C@@H]1Cc2ccccc2[C@H]1Oc1cccc(NC(C)=O)c1` (racemic) [Example 637, N-[3-(rac-trans-(1,2)-2-diethylaminoindan-1-yloxy)phenyl]acetamide] and `CC(=O)Nc1cccc(O[C@H]2c3c(Cl)cccc3C[C@@H]2N2CCCC2)c1` (racemic) [Example 662, N-[3-(rac-trans-(1,2)-7-chloro-2-pyrrolidin-1-ylindan-1-yloxy)phenyl]acetamide] fall in the same range of IC50: 1 to 10 µM for the first, 1 to 10 µM for the second.

First: O=S1(=O)CCCN1c1cccc(O[C@H]2c3ccccc3C[C@@H]2N2CCCC2)c1 (racemic) [Example 363, 2-[3-(rac-trans-(1,2)-2-pyrrolidin-1-ylindan-1-yloxy)phenyl]isothiazolidine 1,1-dioxide]
Second: Cc1nnc(C)n1-c1ccc(O[C@H]2c3ccccc3C[C@@H]2N2CCCC2)c(Cl)c1 [Example 491, 4-[3-chloro-4-(trans-(1S,2S)-2-pyrrolidin-1-ylindan-1-yloxy)phenyl]-3,5-dimethyl-4H-[1,2,4]triazole]
The IC50 of the first is higher: 1 to 10 µM for the first, < 1 µM for the second.

`COc1ccc(C)cc1O[C@@H]1c2ccccc2C[C@H]1N1CCC(CN)CC1` (racemic) [Example 606, C-{1-[rac-trans-(1,2)-1-(2-methoxy-5-methylphenoxy)indan-2-yl]piperidin-4-yl}methylamine] and `N[C@@H]1CCCN([C@@H]2Cc3ccccc3[C@H]2Oc2ccc(F)cc2F)C1` (racemic) [Example 33, (R)-1-[rac-trans-(1,2)-1-(2,4-difluorophenoxy)indan-2-yl]piperidin-3-ylamine] fall in the same range of IC50: 1 to 10 µM for the first, 1 to 10 µM for the second.

`CN(C1CCNCC1)[C@@H]1Cc2ccccc2[C@H]1Oc1cccc(N2CCNCC2)c1` (racemic) [Example 629, methyl-[rac-trans-(1,2)-1-(3-piperazin-1-ylphenoxy)indan-2-yl]piperidin-4-ylamine] and `NC(=O)c1cc(Cl)ccc1O[C@H]1c2ccccc2CC[C@@H]1N1CCC[C@@H](N)C1` (racemic) [Example 365, 2-[rac-trans-(1,2)-2-((R)-3-aminopiperidin-1-yl)-1,2,3,4-tetrahydronaphthalen-1-yloxy]-5-chlorobenzamide] fall in the same range of IC50: 1 to 10 µM for the first, 1 to 10 µM for the second.

In the case of `Cc1cc(O[C@H]2c3cc(F)cc(Cl)c3C[C@@H]2N2CCC[C@@H](N)C2)ccc1S(=O)(=O)C(F)(F)F` (racemic) [Example 90, (R)-1-[rac-trans-(1,2)-4-chloro-6-fluoro-1-(3-methyl-4-trifluoromethanesulfonylphenoxy)indan-2-yl]piperidin-3-ylamine], the IC50 is reported as 1 to 10 µM.

`N[C@@H]1CCCN([C@H]2CCc3ccccc3[C@@H]2Oc2ccccc2Br)C1` (racemic) [Example 36, (R)-1-[rac-trans-(1,2)-1-(2-bromophenoxy)-1,2,3,4-tetrahydronaphthalen-2-yl]piperidin-3-ylamine] and `Cc1ccc(O[C@H]2c3ccccc3CC[C@@H]2N2CCC[C@H](N)C2)c(Br)c1` (racemic) [Example 150, (S)-1-[rac-trans-(1,2)-1-(2-bromo-4-methylphenoxy)-1,2,3,4-tetrahydronaphthalen-2-yl]piperidin-3-ylamine] fall in the same range of inhibition at 10 µM: 20 to 50% for the first, 20 to 50% for the second.

`NS(=O)(=O)c1ccc(O[C@H]2c3ccccc3C[C@@H]2CN2CCCCC2)c(F)c1` (racemic) [Example 450, 3-fluoro-4-(2-piperidin-1-ylmethylindan-1-yloxy)benzenesulfonamide] and `Cc1cc(O[C@@H]2c3cc(Cl)cc(F)c3C[C@H]2N2CCC[C@@H](N)C2)ccc1S(=O)(=O)C(F)(F)F` (racemic) [Example 92, (R)-1-[rac-trans-(1,2)-6-chloro-4-fluoro-1-(3-methyl-4-trifluoromethanesulfonylphenoxy)indan-2-yl]piperidin-3-ylamine] fall in the same range of inhibition at 10 µM: 20 to 50% for the first, 20 to 50% for the second.

`Cc1nnc(C)n1-c1ccc(O[C@H]2c3cc(Cl)c(Cl)cc3C[C@@H]2N2CCCC2)cc1` (racemic) [Example 498, 4-[4-(rac-trans-(1,2)-5,6-dichloro-2-pyrrolidin-1-ylindan-1-yloxy)phenyl]-3,5-dimethyl-4H-[1,2,4]triazole] and `Cc1nc2cc(O[C@H]3c4cc(Cl)cc(Cl)c4C[C@@H]3N3CC[C@@H](O)C3)ccc2s1` [Example 96, (R)-1-[trans-(1S,2S)-4,6-dichloro-1-(2-methylbenzothiazol-5-yloxy)indan-2-yl]pyrrolidin-3-ol] fall in the same range of inhibition at 10 µM: 20 to 50% for the first, 20 to 50% for the second.
